Source: patent US5081119A, “Use of 5-alkylpyridazine derivatives as drugs active on the cholinergic system” (priority 1989, dated 1992)

Experiments:
cholinergic receptors = assay: Ligand properties for the cholinergic receptors (subsequent studies); assay type: binding
[1] = French patents 2 141 697, 2 510 997, 2 510 998; cited from earlier work
[2] = molecular target: T1, M1-type muscarinic cholinergic receptor (Rattus norvegicus, UniProt P08482); assay: Affinity for M1-type muscarinic cholinergic receptor: displacement of [3H]-pirenzepine on rat hippocampus homogenate; assay type: binding; conditions: for IC50: displacement of [3H]-PZ (1 nM), rat hippocampus homogenate, 2 h at 4° C., pH 7.40; for r = M2/M1 (ratio of the M2 and M1 IC50 values, selectivity towards the M1 receptor): ratio of IC50 3H-NMS (guinea-pig ileum) to IC50 3H-PZ (rat hippocampus)
T1 construct: on a homogenate of rat hippocampus; from tissue; host or cells: rat hippocampus homogenate
T1 sequence (P08482 1-460): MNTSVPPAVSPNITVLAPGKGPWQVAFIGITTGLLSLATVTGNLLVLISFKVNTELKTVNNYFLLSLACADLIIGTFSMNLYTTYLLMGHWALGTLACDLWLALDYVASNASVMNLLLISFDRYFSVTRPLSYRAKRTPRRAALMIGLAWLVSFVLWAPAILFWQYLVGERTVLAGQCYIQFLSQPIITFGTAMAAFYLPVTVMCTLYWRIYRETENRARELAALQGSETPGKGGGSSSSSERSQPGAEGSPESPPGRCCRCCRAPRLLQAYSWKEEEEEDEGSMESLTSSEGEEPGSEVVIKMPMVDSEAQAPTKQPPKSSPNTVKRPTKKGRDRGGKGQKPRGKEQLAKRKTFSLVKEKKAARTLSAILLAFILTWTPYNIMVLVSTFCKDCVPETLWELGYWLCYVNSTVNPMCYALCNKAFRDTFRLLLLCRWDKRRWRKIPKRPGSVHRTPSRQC
Text: (§1) In vitro, we studied the interaction of the products (II) with tritiated pirenzepine and tritiated N-methylscopolamine bound with a high affinity to membranes of rat hippocampus and membranes of smooth muscle of guinea-pig ileum, respectively.
A) Test for affinity for the M1 -type muscarinic cholinergic receptor
The interaction of molecules with the M1 -type muscarinic receptors was studied by in vitro measurement, on a homogenate of rat hippocampus, of the displacement of tritiated pirenzepine ([^3 H]-PZ) from its specific binding sites. Aliquots (100 μl) of a 5% (w/v) homogenate of rat hippocampus in an Na2 HPO4 buffer (50 mM, pH 7.40) are incubated for 2 h at 4° C. in the presence of [^3 H]-PZ (76 Ci/mmol; final concentration: 1 nM) and increasing concentrations of test products. The final volume is 2 ml. The reaction is stopped by centrifugation for 10 min at 50,000×g. After decantation and washing of the residues, the bound radioactivity is counted by liquid scintillation. The non-specific binding is determined in the presence of 10 μmol/l of atropine sulfate. The 50% inhibitory concentration (IC50) is determined graphically (Ref.: Watson J. D., Roeskoe W. R. and Yamamura H. I., Life Sci., 31, 2019-2029, 1982).
(§2) Table 3 indicates the affinities of the products of the invention for the M1 and M2 receptors. The results are expressed as 50 percent inhibitory concentrations (IC50), i.e. the concentration (in μM) which causes a 50% inhibition of the binding of the tritiated ligand to the membrane receptors. The IC50 for displacement of ^3 H-pirenzepine represents the affinity for the M1 receptor; the IC50 for displacement of ^3 H-NMS represents the affinity for the M2 receptor.
(§3) The Table also indicates, in the 3rd column, the ratio r of the M2 and M1 IC50 values, which expresses the selectivity of the products towards the M1 receptor.

[3] = molecular target: T2, M2-type muscarinic cholinergic receptor (Cavia porcellus, UniProt H0VRN8); assay: Affinity for M2-type muscarinic cholinergic receptor: displacement of [3H]-N-methylscopolamine on guinea-pig ileum smooth muscle homogenate; assay type: binding; conditions: displacement of [3H]-NMS (0.3 nM), 20 min at 30° C., pH 7.5
T2 construct: on a homogenate of smooth muscle of guinea-pig ileum; from tissue; host or cells: guinea-pig ileum smooth muscle homogenate
T2 sequence (H0VRN8 1-466): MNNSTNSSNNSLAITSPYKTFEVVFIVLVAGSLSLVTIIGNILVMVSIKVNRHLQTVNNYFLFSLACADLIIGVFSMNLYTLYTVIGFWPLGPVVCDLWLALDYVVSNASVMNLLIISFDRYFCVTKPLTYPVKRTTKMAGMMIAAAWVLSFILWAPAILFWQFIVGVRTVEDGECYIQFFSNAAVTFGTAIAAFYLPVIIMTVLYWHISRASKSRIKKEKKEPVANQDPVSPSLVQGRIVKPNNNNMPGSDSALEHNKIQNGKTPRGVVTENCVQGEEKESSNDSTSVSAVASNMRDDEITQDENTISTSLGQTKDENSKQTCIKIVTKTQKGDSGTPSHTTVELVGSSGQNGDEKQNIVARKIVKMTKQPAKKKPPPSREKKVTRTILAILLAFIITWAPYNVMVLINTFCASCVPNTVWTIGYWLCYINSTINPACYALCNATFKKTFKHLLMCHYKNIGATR
Text: as §1
B) Test for affinity for the M2 -type muscarinic cholinergic receptor.
The interaction with the M2 -type muscarinic receptors was studied by in vitro measurement, on a homogenate of smooth muscle of guinea-pig ileum, of the displacement of tritiated N-methylscopolamine ([^3 H]-NMS) from its specific binding sites. Aliquots (50 μl) of a 0.625% (w/v) homogenate of smooth guinea-pig muscle in HEPES buffer (20 mM) containing NaCl (100 mM) and MgCl2 (10 mM) (final pH: 7.5) are incubated for 20 min at 30° C. in the presence of [^3 H]-NMS (85 Ci/mmol; final concentration: 0.3 nM) and increasing concentrations of test products. The final volume is 1 ml. The reaction is stopped by centrifugation for 5 min at 15,000×g. The non-specific binding is determined in the presence of 10 μmol-l of atropine sulfate (Ref.: Hammer R., Berrie C. P., Birdsall N. I. M., Burgen A. S. V. and Hulme E. C., Nature, 283, 90-92, 1980; Hulme E. C., Birdsall N. I. M., Burgen A. S. V. and Mettha P., Mol. Pharmacol., 14, 737-750, 1978).
as §2, §3

[4] = system: rotational behavior induced by intrastriatal pirenzepine (M1 central muscarinic cholinergic receptors); assay: Antagonism of rotational behavior induced by intrastriatal injection of pirenzepine in mice; assay type: in vivo, mice (female, Swiss, CD 1 printed as DC 1, Charles River); conditions: 3 mg/kg p.o., 4 hours before pirenzepine 1 μg into right striatum; 10 animals per dose; Student t test, *p < 0.05, **p < 0.01
Procedure: The compounds of formula (II) were also subjected to an in vivo study. Pirenzepine (PZ) is a specific antagonist of ligands for the M1 central muscarinic cholinergic receptors. The intrastriatal injection of PZ into mice induces rotational behavior. The antagonism of this behavior by the test products was studied. The products according to the invention are administered orally after solubilization in distilled water or suspension in a 5% solution of gum arabic. The control animals receive an injection of the pure solvent under the same conditions. The animals used are female mice (Swiss, DC 1, Charles River, France) with a body weight of between 25 and 30 grams. Pirenzepine is dissolved in a phosphate buffer; the pH of the solution is 6. The test products or their solvents are administered orally in a volume of 0.4 ml per 20 g of body weight, 4 hours before a direct injection of pirenzepine at a dose of 1 μg of product in 1 μl of solvent into the right striatum of the mouse, according to the method described by P. Worms et al. in Psychopharmacology 1987, 93, 489-493. The number of contralateral rotations (rotations in the opposite direction to the side injected) was counted for three 2-minute periods after the injection of pirenzepine: minutes 2 to 4, 8 to 10 and 13 to 15. Each treatment involves 10 animals per dose. For each treatment, the total number of rotations and the percentage antagonism compared with the control group are calculated. The results obtained with the products of formula (II) administered orally at a dose of 3 mg/kg of body weight are collated in Table 4.

Compound	IC50 [2] [nM]	r = M2/M1 (ratio of the M2 and M1 IC50 values, selectivity towards the M1 receptor) [2]	IC50 [3] [nM]	properties as a ligand for the cholinergic receptors (in words) (cholinergic receptors)	antidepressant properties [1]	% inhibition of rotations [4] [%]
Cc1cc(NCCN2CCOCC2)nnc1-c1ccccc1 [(I), 3-(2-morpholinoethylamino)-5-methyl-6-phenylpyridazine]				possesses valuable properties as a ligand for the cholinergic receptors	antidepressant properties of moderate intensity	
Cc1cc(NCCN2CCOCC2)nnc1-c1ccccc1.O=C(O)C(=O)O.O=C(O)C(=O)O [CM 30316, 3-(2-Morpholinoethylamino)-5-methyl-6-phenylpyridazine dioxalate]	550	182	100000			-20
CCN(CC)CCNc1cc(C)c(-c2ccccc2)nn1 [SR 96150 A]	60	47	2800			-49

Now from value to compound, other results behind:

IC50 [2] [nM]	r = M2/M1 (ratio of the M2 and M1 IC50 values, selectivity towards the M1 receptor) [2]	IC50 [3] [nM]	Compound	properties as a ligand for the cholinergic receptors (in words) (cholinergic receptors)	antidepressant properties [1]	% inhibition of rotations [4] [%]
3700	8	30000	CCc1cc(NCCN2CCOCC2)nnc1-c1ccccc1 [SR 96169 A]			-46
70	14	1000	CCc1cc(NCCN(CC)CC)nnc1-c1ccccc1 [SR 96180 A]			-38
600	30	18000	CCCc1cc(NCCN2CCOCC2)nnc1-c1ccccc1 [SR 96186 A]			-41
400	9	3500	CCCc1cc(NCCN(CC)CC)nnc1-c1ccccc1 [SR 96187 A]			-37
